This is an account of results in patent publication US8097774B2, “Cytochrome P450 genes conferring herbicide resistance” (Syngenta Participations AG, priority 2007, dated 2012).

Read-outs that look alike come from different tables or passages of the source. A value given as a limit tells only on which side of the number the result lay.

The subject of data set [1] is Transgenic progeny plants (T1 or later generations) containing the nsf transgene (vector 17108). As to the kind of experiment: T1 seed from 17108 events, spray with other HPPD herbicides. The conditions noted are these: sprayed at 40-80 g/ha rates or higher; evaluated for bleaching and chlorosis. The method, then:
T0 transformants containing the nsf transgene (vector 17108) are allowed to set T1 seed, and the seed is harvested. This seed is planted, and the progeny analyzed to identify seedlots that are derived from germline transformed plants. Transgenic progeny plants (T1 or later generations), are analyzed to confirm mesotrione tolerance. […] Plants are evaluated for bleaching, and chlorosis, as described in Example 7.

In the next data set the test system is corn CYP72A1 enzyme. The conditions noted are these: U.S. Pat. No. 6,380,465, cited from earlier work.
The next data set concerns rice CYP81A6 enzyme. The conditions noted are these: Pan et al. (2007); cited from earlier work.
Data set [2] has as its system CYP76B1 gene in tobacco (Nicotiana tabacum) and Arabidopsis. The conditions noted are these: cited from earlier work.
The subject of another data set is corn plants. The experiment in a line: Mesotrione levels in treated corn plants. In kind it is in vivo. As to conditions: over time; P450 based degradation mechanism.
Data set [3] deals with All plants that were sprayed (negative T0 transformants, vector 17107, event 17108-A). The experiment in a line: Mesotrione spray on soybean T0 plants, early symptoms on all sprayed plants. Format: in vivo, Soybean (Glycine max). As to conditions: 52.5 g/ha mesotrione over the top. The method, then: (§1) T0 plants were taken from tissue culture to the greenhouse where they are transplanted into saturated soil (Redi-Earth® Plug and Seedling Mix, Sun Gro Horticulture, Bellevue, Wash.) mixed with 1% granular Marathon® (Olympic Horticultural Products, Co., Mainland, Pa.) at 5-10 g/gal Redi-Earth® Mix in 2″ square pots. The plants were covered with humidity domes and placed in a Conviron chamber (Pembina, N. Dak.) with the following environmental conditions: 24° C. day; 18° C. night; 23 hr photoperiod; 80% relative humidity.
After plants became established in the soil and new growth appeared (˜1-2 weeks), plants were sampled and tested for the presence of desired transgene by Taqman® analysis using probes for P450 (CYP72A1), or promoters (prCMP and prUBq3). All positive plants and several negative plants were transplanted into 4″ square pots containing MetroMix® 380 soil (Sun Gro Horticulture, Bellevue, Wash.). Sierra 17-6-12 slow release fertilizer was incorporated into the soil at the recommended rate. […] After acclimatizing (˜1 week), the plants were ready to be sprayed with the desired herbicides.
The plants from Example 6 were sprayed with mesotrione to determine if they were tolerant to this herbicide. […] After spraying, plants were placed in the greenhouse, under the same conditions as described in Example 3 above, and evaluated frequently for symptoms. […]

Data set [4] concerns Negative T0 transformants (negative by Taqman for presence of transgenes). As to the kind of experiment: Mesotrione spray on soybean T0 plants, chlorosis rating. Format: in vivo, Soybean (Glycine max). As to conditions: 52.5 g/ha mesotrione, 22 days after the spray. As for the experimental part:
as §1
(§2) After plants became established in the soil and new growth appeared (˜1-2 weeks), plants were sampled and tested for the presence of desired transgene by Taqman® analysis using probes for P450 (CYP72A1), or promoters (prCMP and prUBq3). All positive plants and several negative plants were transplanted into 4″ square pots containing MetroMix® 380 soil (Sun Gro Horticulture, Bellevue, Wash.). Sierra 17-6-12 slow release fertilizer was incorporated into the soil at the recommended rate. The negative plants serve as controls for the spray experiment. The plants were then relocated into a standard greenhouse to acclimatize (˜1 week). The environmental conditions were: 27° C. day; 21° C. night; 12 hr photoperiod (with ambient light); ambient humidity. After acclimatizing (˜1 week), the plants were ready to be sprayed with the desired herbicides.
The plants from Example 6 were sprayed with mesotrione to determine if they were tolerant to this herbicide. Callisto® (active ingredient mesotrione, Syngenta Crop Protection, Inc., Greensboro, N.C.) was mixed in water and X-77 surfactant (0.25% v/v final concentration). Plants were placed in a DeVries spray chamber (DeVries Manufacturing, Hollandale, Minn.), and the distance from the nozzle to the top of the plants was adjusted to approximately 12 inches. The system was set up so that the boom moved at 2 mph, and delivered 25 gallon fluid per acre. The spray rate was calibrated to spray 52.5 g/ha mesotrione over the top of the plants. Negative T0 transformants (i.e., negative by Taqman® for presence of transgenes), T0 transformants with vector 17107, and one transformant with vector 17108 (event 17108-A), were sprayed in this manner. After spraying, plants were placed in the greenhouse, under the same conditions as described in Example 3 above, and evaluated frequently for symptoms. […] However, over time, leaves greened up on all plants. New growth developed as partially bleached, or chlorotic, and the leaves that initially were bleached also greened up. […] At 22 days after the spray, the plants were rated for symptoms on the leaves that were initially bleached. […]

The subject of data set [5] is T0 transformants with vector 17107 (corn CYP72A1 cytochrome P450 gene). The description is as above. The conditions noted are these: 17107 positive, 52.5 g/ha mesotrione, 22 days after the spray. In kind it is in vivo, Soybean (Glycine max).
Text: A binary vector (17107) for dicot (soybean) transformation was constructed, with the Arabidopsis UBQ3 promoter driving the corn CYP72A1 cytochrome P450 gene, followed by NOS terminator (FIG. 3). The gene was codon optimized for soybean expression based upon the predicted amino acid sequence of the maize gene coding region. The amino acid sequence of the protein encoded by the CYP72A1 gene is provided in SEQ ID NO:3, and the nucleotide sequence of the optimized CYP72A1 gene in this binary transformation vector is provided in SEQ ID NO:4. The transformation vector also contains two PAT gene cassettes (one with the 35S promoter and one with the CMP promoter, and both PAT genes are followed by the nos terminator) for glufosinate based selection during the transformation process.
as §1, §2
The plants from Example 6 were sprayed with mesotrione to determine if they were tolerant to this herbicide. Callisto® (active ingredient mesotrione, Syngenta Crop Protection, Inc., Greensboro, N.C.) was mixed in water and X-77 surfactant (0.25% v/v final concentration). Plants were placed in a DeVries spray chamber (DeVries Manufacturing, Hollandale, Minn.), and the distance from the nozzle to the top of the plants was adjusted to approximately 12 inches. The system was set up so that the boom moved at 2 mph, and delivered 25 gallon fluid per acre. The spray rate was calibrated to spray 52.5 g/ha mesotrione over the top of the plants. Negative T0 transformants (i.e., negative by Taqman® for presence of transgenes), T0 transformants with vector 17107, and one transformant with vector 17108 (event 17108-A), were sprayed in this manner. After spraying, plants were placed in the greenhouse, under the same conditions as described in Example 3 above, and evaluated frequently for symptoms. […] However, over time, leaves greened up on all plants. New growth developed as partially bleached, or chlorotic, and the leaves that initially were bleached also greened up. […] At 22 days after the spray, the plants were rated for symptoms on the leaves that were initially bleached. Visible chlorosis was only seen on the leaves immediately above the leaves that were exposed during the spray (i.e., the leaves that had necrotic spots), and in some events, on leaves in sideshoots. The partial chlorosis was evident as light green patches, and often as light green (almost yellow) edges on the leaves.

Data set [6] concerns transformant with vector 17108 (event 17108-A, nsf P450 gene). The description is as above. Format: in vivo, Soybean (Glycine max). The conditions noted are these: 52.5 g/ha mesotrione.
Text: A similar binary vector (17108) was constructed with the corn cytochrome P450 gene ‘nsf’ instead of the CYP72A1 gene (FIG. 4). The nsf gene in this vector was codon optimized for soybean expression (SEQ ID NO:2) based upon the predicted amino acid sequence of the maize gene coding region (SEQ ID NO:1).
as §1, §2
The plants from Example 6 were sprayed with mesotrione to determine if they were tolerant to this herbicide. Callisto® (active ingredient mesotrione, Syngenta Crop Protection, Inc., Greensboro, N.C.) was mixed in water and X-77 surfactant (0.25% v/v final concentration). Plants were placed in a DeVries spray chamber (DeVries Manufacturing, Hollandale, Minn.), and the distance from the nozzle to the top of the plants was adjusted to approximately 12 inches. The system was set up so that the boom moved at 2 mph, and delivered 25 gallon fluid per acre. The spray rate was calibrated to spray 52.5 g/ha mesotrione over the top of the plants. Negative T0 transformants (i.e., negative by Taqman® for presence of transgenes), T0 transformants with vector 17107, and one transformant with vector 17108 (event 17108-A), were sprayed in this manner. After spraying, plants were placed in the greenhouse, under the same conditions as described in Example 3 above, and evaluated frequently for symptoms. […] However, over time, leaves greened up on all plants. […]

Data set [7] has as its system P450 transgenic explants (transgene PCR+ve transformed plants). As to the kind of experiment: Tobacco explants on MS agar containing mesotrione. In kind it is in vivo. The source says: Plant transformation vectors with the appropriate P450 gene expression cassette are used to transform Agrobacterium tumefaciens LBA4404. Tobacco tissue is subjected to Agrobacterium-mediated transformation using methods well described in the art. Transformed shoots are regenerated from callus resistant to the selection agent (e.g., glufosinate, butafenacil, kanamycin). Shoots are rooted on MS agar containing the selection agent.
(§3) To determine tolerance of P450 transgenic explants (i.e. a leaf plus short segment of stem containing the auxiliary bud), these are placed into MS agar (+3% sucrose) containing various concentrations of mesotrione, from 0.02 to 2 ppm. […] In these particular experiments, only the shoot that develops from the bud is bleached, the leaf on the explanted tissue remains green.
They root normally and are phenotypically indistinguishable from untransformed plants. A sub-set of the transformants is tolerant to concentrations of >0.1 ppm yielding plants looking normal and rooting well in the presence of herbicide. Some of the transformed plants can be initially bleached when subjected to the herbicide at the said higher concentrations, but on prolonged exposure they progressively “green up” and “recover”. […]

The subject of data set [8] is untransformed explants (wild-type tobacco). The experiment in a line: Tobacco explants on MS agar containing mesotrione. In kind it is in vivo. As to conditions: 0.02 ppm mesotrione in MS agar (+3% sucrose); no recovery following prolonged exposure.
Text: as §3

The mark [9] stands for this setting: heterologous expression of CYP76B1, Didierjean et al. (2002).
[10] abbreviates: event 17108-A, 17108 positive, 22 days after the spray.

For the compound `CS(=O)(=O)c1ccc(C(=O)C2=C(Sc3ccccc3)C3CCC(C3)C2=O)c(Cl)c1` (stereo not shown) [Benzobicyclon], the tolerance when sprayed entry in data set [1] was “display tolerance”.

With `Cc1ccc(C(=O)COc2c(C(=O)c3ccc(Cl)c(C)c3Cl)c(C)nn2C)cc1` [Benzofenap], the tolerance when sprayed result in [1] is given as “display tolerance”.

As to `CS(=O)(=O)c1cc(Cl)ccc1C(=O)c1cnoc1C1CC1` [Isoxachlortole], the tolerance when sprayed result in data set [1] is listed as “display tolerance”.

Take `Cc1nn(C)c(O)c1C(=O)c1ccc(C(F)(F)F)cc1S(C)(=O)=O` [Pyrasulfatole]: the tolerance when sprayed result in [1] is “display tolerance”.

In the case of `CS(=O)(=O)c1ccc(C(=O)C2C(=O)CCCC2=O)c(Cl)c1` [Sulcotrione], in data set [1], the tolerance when sprayed result is “display tolerance”.

On to `Cc1c(C(=O)c2cnn(C)c2O)ccc(S(C)(=O)=O)c1C1=NOCC1` [Topramezone], for which the tolerance when sprayed entry in data set [1] was “display tolerance”.

As to `CC(C)N1C(=O)c2ccccc2NS1(=O)=O` [bentazon], the “ability of the enzyme to degrade the herbicide” value (from here on “ability of the enzyme”) in the data set on corn CYP72A1 enzyme is “degrade”; with rice CYP81A6 enzyme, “able to degrade”.

Consider `COc1cc(Cl)nc(NC(=O)NS(=O)(=O)c2ccccc2C(=O)O)n1` [chlorimuron], for which the “ability of the enzyme” value in the data set with corn CYP72A1 enzyme was “degrade”.

`Cc1ccc(NC(=O)N(C)C)cc1Cl` [chlortoluron]: the increase in tolerance in data set [2] (setting [9]) was 10 fold. For the same compound, the “ability of the enzyme” value in the data set with corn CYP72A1 enzyme is “degrade”.

`CC(C)c1ccc(NC(=O)N(C)C)cc1` [isoproturon]: the increase in tolerance in data set [2] (in vivo) is reported as 10 fold.

As to `CON(C)C(=O)Nc1ccc(Cl)c(Cl)c1` [linuron], in data set [2] (setting [9]), the level of tolerance is reported as 20 fold.

Turning to `CCOC(=O)CC(SP(=S)(OC)OC)C(=O)OCC` (stereo not shown) [malathion], the “ability of these plants to degrade the insecticide” value with corn CYP72A1 enzyme (plants) is “able to degrade”.

As for `CS(=O)(=O)c1ccc(C(=O)C2C(=O)CCCC2=O)c([N+](=O)[O-])c1` [mesotrione], in the data set with corn plants, the “mesotrione levels in treated corn plants” value was “decrease over time”. Moreover, the “symptoms on leaves exposed at the time of herbicide application” value in data set [3] is listed as “developed necrotic symptoms on small portions of the leaves”. Besides, in data set [3] (leaves greened up over time), the “bleaching of new growth that emerged from the plants” value is on record as “completely bleached”. Moreover, the “Number of leaves with <50% chlorisis” value in [4] (event 6D032-A #4, Negative) is reported as 1; in [4] (event 6D032-A #14, Negative), 0; in data set [5] (event 17107-A), 0; in [5] (event 17107-B), 2; in data set [5] (event 17107-C), 1; in data set [5] (event 17107-D), 2. Also, the “Number of leaves with <50% chlorisis” value in data set [5] (event 17107-E) was determined as 1; in [5] (event 17107-F), 2; in data set [5] (event 17107-G), 2; in data set [5] (event 17107-H), 4; in data set [5] (event 17107-I), 1; in data set [6] (setting [10]), 0. In addition, the “Number of leaves with ≧50% chlorosis” value in [4] (event 6D032-A #4, Negative) is reported as 1; in data set [4] (event 6D032-A #14, Negative), 2; in [5] (event 17107-A) it was 2; in data set [5] (event 17107-B), 2; in data set [5] (event 17107-C) it was 1; in data set [5] (event 17107-D) it was 3. Further, the “Number of leaves with ≧50% chlorosis” value in data set [5] (event 17107-E) was 2; in [5] (event 17107-F), 1; in data set [5] (event 17107-G), 1; in data set [5] (event 17107-H) it was 2; in [5] (event 17107-I), 1; in [6] (setting [10]), 0. The “recovery from the mesotrione injury” value in data set [6] (event 17108-A only) is given as “fully recover”. Also, in [6] (event 17108-A, 1 week after spray), the “greening of bleached leaves compared with events with vector 17107” value is listed as “turned green faster”. Also, the “bleaching at the level which causes symptoms on wild-type tobacco” value in data set [7] (a number of the transgene PCR+ve transformed plants) is on record as “no indication of bleaching”. Further, in [7] (a sub-set of the transformants, mesotrione in MS agar), the “concentration tolerated, plants looking normal and rooting well” value was above 0.1 ppm. Moreover, the bleaching of explants entry in data set [8] is reported as “fully bleached”.
